Data as given in patent US20230404994A1, “MARKERS OF TISSUE AGING AND USES THEREFOR” (The University of Newcastle, priority 2017, published 2023).
Entries after “also recorded” stand apart in the source; their conditions may differ.

Assays:
[1] = test system: serum starved placental explants; test: Placental explant culture in serum-free medium, 4HNE / LC3B / LAMP2 immunohistochemistry; assay type: cell-based, human; conditions: 24 hr of treatment; for disturbance in autophagosome size / disturbance in lysosomal location: serum starved placental explants; for production of 4HNE (induced by serum starvation): term placental explants, serum-free medium, 1 nM, p<0.05 (N=6)
Description: For in vitro experiments, human term placentas (38-39 weeks of gestation) were obtained from women with normal singleton pregnancies without any symptoms of labour after an elective (a scheduled repeat) caesarean section. Placentas were collected immediately after delivery and prepared for explant culture. Villous tissues of placentas were randomly sampled from different regions of placenta and 4-5 mm beneath the chorionic plate. Tissues were washed several times with Dulbecco's phosphate-buffered saline (DPBS) under sterile condition to remove excess blood.
Villous explants of ˜2 mm^3 were dissected and placed into 100×20 mm culture dishes (30 pieces/dish) containing 25 ml of Dulbecco's modified Eagle's medium (DMEM) supplemented with 2 mM L-glutamine, 1% Na-pyruvate, 1% penicillin/streptomycin (100×) solution with the addition of 10% (v/v) fetal bovine serum (FBS) and were cultured in a cell culture chamber at 37° C. temperature and maintaining 95% air (20% oxygen) and 5% CO2 for 24 hours. At day 2, villous explants were transferred to fresh 30 ml growth medium and incubated in a cell culture chamber for 90 minutes. After this the tissues were washed in DMEM without FBS (refer to as ‘serum-free medium’ or ‘growth factor deficient medium’). Next 6-7 pieces of villous tissue weighing approximately 400 mg were transferred to a culture dish (60×15 mm) containing 6 ml serum-free medium with or without the addition of pharmacological agents, for example, raloxifene (1 nM) and GPER1 agonist G1 (1 nM), for subsequent incubation up to 24 h. At the end of 24 h some tissues were fixed in 2% formaldehyde, subjected to routine histological processing and embedded in paraffin wax, and some tissues were immediately frozen in liquid nitrogen and stored at −80° C. until subsequent experiments. For each placental explant culture, samples were also collected at time ‘0 (zero)’ h i.e., before incubation in serum free medium, and were formalin fixed and stored frozen at −80° C. until further experiments.
6 μm paraffin placental sections were deparaffinised and hydrated, then heated with tris-EDTA buffer (pH 9) in a microwave oven for antigen retrieval. The sections were blocked with 1% BSA in TBST for an hour at room temperature. The sections were incubated with primary antibodies overnight and washed three times with TBST, before incubation with Alexa-conjugated secondary antibodies for 90 mins. The sections were mounted with antifade solution with DAPI. The fluorescent photographs for FIGS. 3 to 7, 9 and 11 were taken on a Nikon eclipse 90i confocal microscope. The fluorescent photographs for FIG. 10 were taken on Nikon eclipse Ti fluorescence microscope.
The present data provide clear evidence for increased lipid oxidation, disordered lysosome-autophagosome interactions and increased AOX1 expression in the post-dated and stillbirth placental syncytiotrophoblast. To determine if these events were causally linked the inventors developed a placental explant culture system using term placental tissue cultured in serum-free (growth factor deficient) medium.
The inventors sought to determine cause and effect relationships between the development of lipid oxidation observed when placental explants were cultured in the absence of serum and AOX1. The GPER agonist G-1 was used to inhibit aldehyde oxidase. The potent AOX1 inhibitor, raloxifene, was also used.

[2] = test system: kidney; conditions: Lindsey et al., 2011, Hypertension, 58: 665-671; cited from earlier work

| SMILES | disturbance in autophagosome size [1] | disturbance in lysosomal location [1] | production of 4HNE (induced by serum starvation) [1] | production of 4HNE in the kidney [2] |
| --- | --- | --- | --- | --- |
| CC(=O)c1ccc2c(c1)C1C=CCC1C(c1cc3c(cc1Br)OCO3)N2 (stereo not shown) [G1, 1-[4-(6-bromobenzo[1,3]dioxol-5yl)-3a,4,5,9b-tetrahydro-3H-cyclopenta[c]quinolin-8-yl]-ethanone] | able to block | able to block | inhibited the production of 4HNE; also recorded: significantly reduced | inhibit production of 4HNE in the kidney |
| O=C(c1ccc(OCCN2CCCCC2)cc1)c1c(-c2ccc(O)cc2)sc2cc(O)ccc12 [raloxifene] | able to block | able to block | inhibited the production of 4HNE; also recorded: significantly reduced | – |
